“And” between values parts separate entries of the source, which are not always exact repeats. Identical values can stand only once. “Also recorded” adds a separate entry of the source.
Key:
AccA [1] = biological target: T1, AccA (Agrobacterium fabrum, UniProt Q52012); assay: biochemical; type: binding, Agrobacterium tumefaciens C58; conditions: for fluorescence intensity / autofluorescence signal change on incubating AccA with ligand: tryptophan fluorescence, excitation 295 nm, emission 335 nm
Method: Ligand binding to the protein AccA was investigated using tryptophan fluorescence spectroscopy, a method exploiting significant conformational changes accompanying the binding.
All experiments were performed at 22°C in 3 x 15 mm quartz cuvettes using Cary Eclypse spectrofluorometer (Varian) in 25 mM Tris-HCl pH 8.0 and 150 mM NaCl with a fixed amount of proteins (2 μM) and increasing concentrations of ligand. […] The data were analysed using Origin 7 software and fitted to the equation f = ΔFluorescencemax*abs(x)/(K D+abs(x)).

AccA [2] = biological target: T1, AccA; assay: AccA isothermal titration microcalorimetry; type: binding, Agrobacterium tumefaciens C58; conditions: for binding to AccA detected by microcalorimetry / TΔS / ΔG / ΔH / N (binding stoichiometry) / K (association binding constant): ITC; for K (association binding constant): Ka in M-1
Method: (§1) Isothermal titration microcalorimetry experiments were performed with an ITC200 isothermal titration calorimeter from MicroCal (GE Healthcare). The experiments were carried out at 20°C for AccA and 25°C for AccR. […] For agrocin 84 experiment, we inverted the protein and ligand positions: the ligand was in the cell and the protein in the syringe. This strategy was chosen to overcome the small amount of agrocin 84. The experimental data were fitted to theoretical titration curves with software supplied by MicroCal (ORIGIN). This software uses the relationship between the heat generated by each injection and ΔH (enthalpy change in Kcal.Mol-1), Ka (the association binding constant in M-1), n (the number of binding sites), total protein concentration and free and total ligand concentrations.
Target sequence in this assay (Q52012 entry or part of it): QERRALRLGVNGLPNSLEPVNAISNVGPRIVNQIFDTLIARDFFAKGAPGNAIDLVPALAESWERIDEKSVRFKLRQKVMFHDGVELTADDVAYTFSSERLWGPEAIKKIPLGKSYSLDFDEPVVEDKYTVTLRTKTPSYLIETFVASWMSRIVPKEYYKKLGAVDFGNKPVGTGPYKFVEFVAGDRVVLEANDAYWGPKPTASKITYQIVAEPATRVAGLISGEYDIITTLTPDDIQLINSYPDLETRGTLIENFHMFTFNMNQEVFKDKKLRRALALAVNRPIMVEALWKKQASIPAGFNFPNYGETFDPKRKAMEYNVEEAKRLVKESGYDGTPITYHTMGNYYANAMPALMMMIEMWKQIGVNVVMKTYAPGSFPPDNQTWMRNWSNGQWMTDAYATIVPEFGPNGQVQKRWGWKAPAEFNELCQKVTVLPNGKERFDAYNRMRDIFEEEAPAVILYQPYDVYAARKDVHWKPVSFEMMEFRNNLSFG

AccR = biological target: T2, AccR (Agrobacterium fabrum, UniProt P32104); assay: AccR isothermal titration microcalorimetry; type: binding, Agrobacterium tumefaciens C58
T2 construct: 6-His tag (C); made in house; host or cells: E. coli C41
Method: The question arose about their biological role in A. tumefaciens, especially in relation to regulation of the AccR/quorum-sensing pathway that controls dissemination of the Ti plasmid. We first measured the affinity of the synthetic agrocinopine A towards purified recombinant AccR by isothermal titration microcalorimetry.
as §1

A. tumefaciens C58 [3] = assay: Ti plasmid conjugation assay; type: cell-based, Agrobacterium tumefaciens; conditions: for Ti plasmid transconjugants: C58 control donor with recipient C58.00, 1 mM compound; for Ti plasmid conjugation: 1 mM compound
Method: (§2) In complementation assay, the accF wild-type gene was cloned into p6000 [50] plasmid and electroporated into the accF mutant. Rifampicin-resistant recipient strain C58.00 was derived from A. tumefaciens C58 cured of the At and Ti plasmids. A. tumefaciens was cultivated at 28°C in AB minimal medium containing ammonium chloride (1 g/L) and mannitol (2 g/L), or in Luria-Bertani modified medium (LBm; NaCl 5 g/L). The antibiotics gentamycin and rifampicin were added at 25 μg/mL and 100 μg/mL, respectively.
(§3) Overnight LBm cultures of recipient (C58.00) and donor (C58 control) cells were mixed in an equal ratio (1:1). 10 μl of this mix were transferred into 140 μl of AB medium supplemented with mock or 1 mM of agrocinopine A, L-arabinose-2-phosphate and glucose-2-P for static liquid cultures of 24, 48, 72 and 96 hours. Suspension dilutions of these cultures were spotted onto selective agar media to enumerate the different bacterial populations (donor, recipient and Ti plasmid transconjugants). In parallel, to quantify OC8HSLs, aliquots of cell cultures were spotted onto TLC plates (RP-18/UV254, Macherey-Nagel) and incubated with the OC8HSL-bioindicator strain A. tumefaciens NT1(pZLR4) as previously described. Tested samples were compared with a calibration curve obtained with pure OC8HSL (Sigma-Aldrich).

A. tumefaciens C58 [4] = assay: Quantification of OC8HSL quorum-sensing signal in cell cultures; type: cell-based, Agrobacterium tumefaciens; conditions: 1 mM compound
Method: as §2, §3

A. tumefaciens C58 [5] = assay: Uptake assay: growth with compound as sole carbon source; type: cell-based, Agrobacterium tumefaciens; conditions: 1 mM in AB media, OD600 monitored for 48 hours
Method: This experiment confirmed that the transporter can uptake bulky synthetic molecules such as agrocinopine 3’-O-benzoate into the cell as observed for the toxin agrocin 84, which is also a relatively large molecule.
A single colony of Agrobacterium tumefaciens C58 with pTiC58 derivative pTi::Gm was grown overnight at 28°C in AB media supplemented with mannitol (2 g/L) and gentamicin 25 μg.ml-1. 20 ml of AB media in presence of a carbon source (agrocinopine 3’-O-benzoate or L-arabinose-2-phosphate at a final concentration of 1 mM) or in absence of any carbon source and supplemented with gentamicin (25 μg.ml-1) were inoculated at an initial OD600 of 0.03 and the OD was monitored for 48 hours.

[6] = biological target: AccR, master transcriptional regulator (transcriptional repressor of the DeoR family) of Agrobacterium tumefaciens C58 (Agrobacterium tumefaciens C58); assay: native gel or EMSA; native gel electrophoresis of purified recombinant AccR in solution; conditions not given, no figure or methods section for this gel
[7] = AccA 2 μM, 22°C, 25 mM Tris-HCl pH 8.0, 150 mM NaCl, one binding site model, ND: no signal detected, read-out: apparent KD (autofluorescence titration)
[8] = accF mutant complemented with accF wild type (p6000)

T2 sequence (P32104 whole entry): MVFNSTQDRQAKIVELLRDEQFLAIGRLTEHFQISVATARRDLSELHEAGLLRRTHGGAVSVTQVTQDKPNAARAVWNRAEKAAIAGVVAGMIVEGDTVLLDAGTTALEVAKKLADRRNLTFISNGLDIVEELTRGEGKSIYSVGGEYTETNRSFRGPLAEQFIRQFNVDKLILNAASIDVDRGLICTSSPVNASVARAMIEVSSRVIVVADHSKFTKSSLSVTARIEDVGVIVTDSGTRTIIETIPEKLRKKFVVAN
Chain of AccR, master transcriptional regulator (transcriptional repressor of the DeoR family) of Agrobacterium tumefaciens C58 (natural protein) (O30540 whole entry): as the sequence (P32104 whole entry) above

Row | Compound | fluorescence intensity / autofluorescence signal change on incubating AccA with ligand (AccA [1]) | Kd (AccA [2]) [nM] | TΔS (AccA [2]; 20°C) | ΔG (AccA [2]; 20°C) [kcal/mol] | ΔH (AccA [2]; 20°C) | N (binding stoichiometry) (AccA [2]; 20°C, one binding site model) | K (association binding constant) (AccA [2]; 20°C) | other results
1 | O=P(O)(O)O[C@H]1C(O)O[C@H](CO)[C@@H](O)[C@@H]1O (stereo partly drawn) |  |  |  |  |  |  |  | Kd (AccA [1]): 2500 nM
2 | OC1OC[C@H](O)[C@H](O)[C@H]1O (mixture of isomers) [L-arabinose, reference compound] | No fluorescence intensity change |  |  |  |  |  |  | binding to AccA detected by microcalorimetry (AccA [2]): No signal detected; also recorded: could not detect any binding
3 | CC(C)OP(=O)(O)O[C@H]1C(O)OC[C@H](O)[C@@H]1O (stereo partly drawn) [L-arabinose-2-isopropylphosphate] |  | 2200 ± 580 | -8E3 cal/mol/K | -7.6 | -1.56E4 ± 493 cal/mol | 1.08 ±0.03 | 4.72E5 ± 1.2E5 | Kd (AccA [1]; [7]): 4790 ± 600 nM
4 | O=C[C@H](OP(=O)(O)O)[C@@H](O)[C@@H](O)CO [L-arabinose-2-phosphate] |  | 1330 ± 120 | -3.2E3 | -7.9 | -1.11E4 ± 168 cal/mol | 0.95 ± 0.01 | 7.54E5 ±6.5E4 | Kd (AccR): 110 ± 60 nM; n1 (stoichiometry, first step) (AccR; ITC, 25°C): 0.4; n2 (stoichiometry, second step) (AccR; ITC, 25°C): 0.9; Ti plasmid transconjugants (A. tumefaciens C58 [3]): could also be detected; Ti plasmid conjugation (A. tumefaciens C58 [3]; accF defective mutant donor): still activated; accumulation of quorum-sensing molecules (A. tumefaciens C58 [4]; accF defective mutant): still observed; Kd (AccA [1]; [7]): 2930 ± 660 nM
5 | Nc1ncnc2c1ncn2[C@@H]1O[C@H](COP(=O)(O)O)[C@@H](O)[C@H]1O [adenosine monophosphate, reference compound] |  |  |  |  |  |  |  | binding to AccA detected by microcalorimetry (AccA [2]): could not detect any binding
6 | O=C(OC1C(OP(=O)(O)OC2C(O)OCC(O)C2O)C(CO)OC1(CO)OC1OC(CO)C(O)C(O)C1O)c1ccccc1 (stereo not drawn) [agrocinopine 3’-O-benzoate] |  | 7500 ± 2200 | 3.2E3 | -6.9 | -3.7E3 ± 374 cal/mol | 0.99 ± 0.06 | 1.33E5 | bacterial growth with compound as sole carbon source (A. tumefaciens C58 [5]): used as nutrient by the bacteria as indicated by bacterial growth; fold lower affinity with AccA in comparison with agrocinopine A (AccA [2]; ITC KD values): 25 fold; Kd (AccA [1]; apparent KD (autofluorescence titration), AccA 2 μM, 22°C, 25 mM Tris-HCl pH 8.0, 150 mM NaCl, one binding site model, ND: no signal detected): 5880 ± 1600 nM
7 | O=P(O)(OC1C(O)OCC(O)C1O)OC1C(CO)OC(CO)(OC2OC(CO)C(O)C(O)C2O)C1O (stereo not drawn) [agrocinopine A] |  | 300 ± 30 | -2.6E3 | -8.6 | -1.12E4 ± 98 cal/mol | 1 ± 0.006 | 2.99E6 ± 2.9E5 | affinity towards purified recombinant AccR (AccR; ITC): no affinity was detected; Ti plasmid transconjugants (A. tumefaciens C58 [3]): could also be detected; Ti plasmid conjugation (A. tumefaciens C58 [3]; accF defective mutant donor): abolished; Ti plasmid conjugation (A. tumefaciens C58 [3]; [8]): restored; accumulation of quorum-sensing molecules (A. tumefaciens C58 [4]; accF defective mutant): abolished; accumulation of quorum-sensing molecules (A. tumefaciens C58 [4]; [8]): restored; Kd (AccA [1]; [7]): 1320 nM and 1300 nM
8 | O=P(O)(O)O[C@H]1O[C@H](CO)[C@@H](O)[C@H](O)[C@H]1O [glucose-1-phosphate, reference compound] | no autofluorescence signal changes |  |  |  |  |  |  | 
9 | O=C[C@H](O)[C@@H](O)[C@H](O)[C@H](O)COP(=O)(O)O [glucose-6-phosphate, reference compound] | no autofluorescence signal changes |  |  |  |  |  |  | 
10 | AccR, master transcriptional regulator (transcriptional repressor of the DeoR family) of Agrobacterium tumefaciens C58 (natural protein) |  |  |  |  |  |  |  | stoichiometry N [6]: 2
11 | agrocin 84 [reference compound] | no signal was measured |  | -3.6E4 | -7.7 | -43.7 ± 3.8 kcal/mol | 0.8 ± 0.043 | 6.83E5 ± 1.8E5 | Kd (AccA [2]; 20°C, one binding site model, read-out: mean KD (isothermal titration microcalorimetry)): 1500 ± 410 nM
12 | phosphate [reference compound] | No fluorescence intensity change |  |  |  |  |  |  | 
